Read-outs that look alike come from different tables or passages of the source.
What was measured:
BRG-1 = target: T1, BRG-1 (Homo sapiens, UniProt P51532); experiment: ATPase catalytic activity of BRG-1, ADP-Glo in vitro biochemical assay; conditions: 30 nM BRG-1, 400 μM ATP, read-out: BRG1 IC50
T1 construct: made in house; host or cells: High Five insect cells
In short: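 Luminescence read-out: ADP formed by BRG-1 ATPase is converted to ATP and detected by luciferase. Residual ATP is first removed with ADP-Glo Reagent for 40 min at RT; detection reagent is then incubated 60 min at RT before reading.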

BRM = target: T2, BRM (Homo sapiens, UniProt P51531); experiment: ATPase catalytic activity of BRM, ADP-Glo in vitro biochemical assay; conditions: for IC50: 30 nM BRM, 400 μM ATP; for Ratio* (BRG1 IC50 (μM) divided by BRM IC50 (μM)): selectivity ratio BRG1 IC50 / BRM IC50
T2 construct: made in house; host or cells: High Five insect cells
T2 sequence (P51531 whole entry): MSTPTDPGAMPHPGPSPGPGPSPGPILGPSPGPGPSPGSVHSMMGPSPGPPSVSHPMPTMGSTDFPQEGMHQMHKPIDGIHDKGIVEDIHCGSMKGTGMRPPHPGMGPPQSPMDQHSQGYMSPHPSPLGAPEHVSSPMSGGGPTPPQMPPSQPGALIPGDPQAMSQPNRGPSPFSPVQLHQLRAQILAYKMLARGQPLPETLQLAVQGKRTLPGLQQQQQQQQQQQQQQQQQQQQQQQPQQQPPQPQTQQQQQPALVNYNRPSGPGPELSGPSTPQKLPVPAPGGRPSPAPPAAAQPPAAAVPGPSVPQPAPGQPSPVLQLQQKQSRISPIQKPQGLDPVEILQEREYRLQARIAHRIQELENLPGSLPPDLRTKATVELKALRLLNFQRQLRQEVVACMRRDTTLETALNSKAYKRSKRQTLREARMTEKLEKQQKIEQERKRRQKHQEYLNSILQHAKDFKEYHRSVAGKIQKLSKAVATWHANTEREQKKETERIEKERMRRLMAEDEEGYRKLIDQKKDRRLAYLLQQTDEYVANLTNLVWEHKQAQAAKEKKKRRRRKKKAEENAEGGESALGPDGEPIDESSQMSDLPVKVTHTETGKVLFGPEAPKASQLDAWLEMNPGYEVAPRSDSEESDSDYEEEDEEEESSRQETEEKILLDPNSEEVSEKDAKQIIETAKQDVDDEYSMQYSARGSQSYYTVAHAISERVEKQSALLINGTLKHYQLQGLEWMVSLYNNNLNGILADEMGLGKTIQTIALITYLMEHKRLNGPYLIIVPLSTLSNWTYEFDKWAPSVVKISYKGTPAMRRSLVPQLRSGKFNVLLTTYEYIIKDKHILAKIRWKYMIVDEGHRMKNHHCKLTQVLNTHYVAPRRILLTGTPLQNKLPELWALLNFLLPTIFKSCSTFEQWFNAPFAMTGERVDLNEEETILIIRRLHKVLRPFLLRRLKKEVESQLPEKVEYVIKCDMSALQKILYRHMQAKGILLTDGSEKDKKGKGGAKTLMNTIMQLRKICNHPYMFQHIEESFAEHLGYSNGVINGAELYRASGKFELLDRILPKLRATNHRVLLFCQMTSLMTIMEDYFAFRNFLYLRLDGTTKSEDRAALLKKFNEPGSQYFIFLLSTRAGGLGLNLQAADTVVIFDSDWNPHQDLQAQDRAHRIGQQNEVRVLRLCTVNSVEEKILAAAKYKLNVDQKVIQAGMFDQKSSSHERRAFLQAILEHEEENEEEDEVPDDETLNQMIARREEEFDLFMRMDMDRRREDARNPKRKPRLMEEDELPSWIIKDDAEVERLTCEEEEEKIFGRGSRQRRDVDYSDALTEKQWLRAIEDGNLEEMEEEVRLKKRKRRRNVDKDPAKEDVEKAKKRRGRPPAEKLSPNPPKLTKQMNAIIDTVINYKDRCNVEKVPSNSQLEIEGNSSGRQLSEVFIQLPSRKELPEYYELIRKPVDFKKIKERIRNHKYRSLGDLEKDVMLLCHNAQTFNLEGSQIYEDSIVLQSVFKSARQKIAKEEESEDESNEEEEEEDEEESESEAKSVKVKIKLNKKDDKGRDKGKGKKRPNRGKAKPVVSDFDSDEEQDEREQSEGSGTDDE
In short: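 ADP-Glo luminescence, after depletion of leftover ATP and conversion of ADP, reported the activity. The 1 h room-temperature reaction held 400 μM ATP, 20 nM salmon sperm DNA and 30 nM BRM in 20 mM Tris pH 8, 20 mM MgCl2, 50 mM NaCl, 0.1% Tween-20, 1 mM DTT.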

[1] = ATPase catalytic activity, ADP-Glo

T1 sequence (P51532 whole entry): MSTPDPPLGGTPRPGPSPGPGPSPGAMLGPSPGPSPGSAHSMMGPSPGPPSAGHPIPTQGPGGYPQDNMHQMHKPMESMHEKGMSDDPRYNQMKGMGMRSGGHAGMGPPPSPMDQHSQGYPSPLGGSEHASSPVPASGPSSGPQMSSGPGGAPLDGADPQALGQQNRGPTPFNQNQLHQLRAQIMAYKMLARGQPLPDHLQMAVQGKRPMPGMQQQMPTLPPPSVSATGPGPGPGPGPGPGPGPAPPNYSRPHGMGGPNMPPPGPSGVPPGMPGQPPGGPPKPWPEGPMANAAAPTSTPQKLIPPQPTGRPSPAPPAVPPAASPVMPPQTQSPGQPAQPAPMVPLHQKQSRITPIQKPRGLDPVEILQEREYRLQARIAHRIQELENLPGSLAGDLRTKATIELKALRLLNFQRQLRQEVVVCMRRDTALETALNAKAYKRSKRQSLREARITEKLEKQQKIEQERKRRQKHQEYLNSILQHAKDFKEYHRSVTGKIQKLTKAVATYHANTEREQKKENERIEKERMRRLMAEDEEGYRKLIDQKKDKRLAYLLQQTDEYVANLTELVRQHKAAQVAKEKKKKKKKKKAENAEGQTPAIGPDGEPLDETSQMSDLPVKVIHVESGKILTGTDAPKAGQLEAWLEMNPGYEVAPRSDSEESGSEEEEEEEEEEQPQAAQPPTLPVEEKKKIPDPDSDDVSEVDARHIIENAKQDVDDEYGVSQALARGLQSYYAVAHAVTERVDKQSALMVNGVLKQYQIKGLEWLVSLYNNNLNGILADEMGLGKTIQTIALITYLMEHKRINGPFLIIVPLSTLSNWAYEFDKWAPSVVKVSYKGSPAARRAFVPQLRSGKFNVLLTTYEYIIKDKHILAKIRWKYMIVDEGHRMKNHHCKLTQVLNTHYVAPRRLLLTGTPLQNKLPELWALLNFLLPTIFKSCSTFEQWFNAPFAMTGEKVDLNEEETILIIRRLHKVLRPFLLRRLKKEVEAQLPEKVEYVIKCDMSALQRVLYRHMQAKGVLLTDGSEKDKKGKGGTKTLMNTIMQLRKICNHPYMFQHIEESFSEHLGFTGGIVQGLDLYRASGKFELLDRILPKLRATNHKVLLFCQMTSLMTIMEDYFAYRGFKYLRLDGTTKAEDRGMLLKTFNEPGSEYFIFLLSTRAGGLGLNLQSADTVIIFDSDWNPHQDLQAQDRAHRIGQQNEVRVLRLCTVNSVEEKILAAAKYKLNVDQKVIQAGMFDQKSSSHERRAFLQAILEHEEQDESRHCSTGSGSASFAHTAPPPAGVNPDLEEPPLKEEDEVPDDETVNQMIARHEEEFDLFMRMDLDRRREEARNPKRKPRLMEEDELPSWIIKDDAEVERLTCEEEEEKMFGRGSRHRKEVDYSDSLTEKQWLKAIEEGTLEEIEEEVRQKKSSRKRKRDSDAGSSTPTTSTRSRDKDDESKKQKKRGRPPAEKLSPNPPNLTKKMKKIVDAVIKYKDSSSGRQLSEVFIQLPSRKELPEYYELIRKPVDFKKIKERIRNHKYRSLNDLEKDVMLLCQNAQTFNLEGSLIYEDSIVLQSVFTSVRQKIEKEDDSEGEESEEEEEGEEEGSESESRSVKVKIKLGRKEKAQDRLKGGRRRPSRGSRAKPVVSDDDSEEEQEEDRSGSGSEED

IC50 (BRG-1; ADP-Glo ATPase assay) [nM]	IC50 (BRM; ADP-Glo ATPase assay) [nM]	Ratio* (BRG1 IC50 (μM) divided by BRM IC50 (μM)) (BRM)	Ratio* (BRM; ratio BRG1 IC50 / BRM IC50)	IC50 (BRG-1; [1]) [nM]	IC50 (BRM; [1]) [nM]	Ratio* (BRM; ratio of BRG1 IC50 to BRM IC50)	Structure (SMILES)
535	34.2	15.63					COCCN1CCOc2c(-c3ccc4cnc(CNC(=O)c5ccc(Cl)c(S(C)(=O)=O)c5)cc4n3)cccc21 [Compound 88]
116	11.7						C[C@@H]1CN(c2cccc(-c3ccc4cnc(CNC(=O)c5ccc6c(c5)S(=O)(=O)CCCO6)cc4n3)n2)C[C@H](C)O1 [Compound 53]
26.4	8.4		3.16				C[C@@H]1CN(c2cccc(-c3ccc4cnc(CNC(=O)c5cnc6c(c5)S(=O)(=O)[C@@H](C)COC6)cc4c3)n2)C[C@H](C)O1 [Compound 769]
				35.5	3	11.70	O=C(NCc1cc2nc(N3CCCc4ccc(OCC5COC5)cc43)ccc2cn1)c1ccc2c(c1)S(=O)(=O)CCOC2 [Compound 676]
107	15.4	6.99					O=C(NCc1cc2cc(-c3cncc(N4CCC4)n3)ccc2cn1)c1ccc2c(c1)S(=O)(=O)CCOC2 [Compound 257]
244	19.3	12.64					CC1COCc2ccc(C(=O)NCc3cc4nc(-c5cccc(N6CCC6)n5)ccc4cn3)cc2S1(=O)=O (single isomer, unassigned) [Compound 197]
84.2	9.4		8.96				COc1cccc2c1CCCN2c1ccc2cnc(CNC(=O)c3cnc4c(c3)S(=O)(=O)[C@@H](C)COC4)cc2n1 [Compound 733]
1380	96.1		14.31				O=C(NCc1cc2nc(-c3cccc(OCC4CC4)c3)ccc2cn1)c1ccc2c(c1)S(=O)(=O)CCOC2 [Compound 820]
				58.6	12.5	4.69	C[C@@H]1CN(c2cccc(-c3ccc4cnc(CNC(=O)c5cnc6c(c5)S(=O)(=O)CCCC6(F)F)cc4n3)n2)C[C@H](C)O1 [Compound 407]
185	8.3		22.29				C[C@H]1C[C@@H]1c1ccc2c(n1)N(c1ccc3cnc(CNC(=O)c4ccc5c(c4)S(=O)(=O)CCOC5)cc3n1)CCO2 [Compound 810]
				2190	243	9.02	Cc1ccc2c(n1)N(c1ccc3cnc(CNC(=O)c4ccc5c(c4)S(=O)(=O)CCOC5)cc3n1)CCN2C [Compound 593]
583	59.5	9.79					CO[C@H]1C[C@@H](c2cccc(-c3ccc4cnc(CNC(=O)c5ccc6c(c5)S(=O)(=O)CCOC6)cc4n3)n2)C1 [Compound 113]
				120	11	10.96	O=C(NCc1cc2nc(-c3cccc(N4CC[C@H]5C[C@H]5C4)n3)ccc2cn1)c1ccc2c(c1)S(=O)(=O)CCOC2 [Compound 322]
				439	26.6	16.52	CC1CN(c2cccc(-c3ccc4cnc(CNC(=O)c5ccc6c(c5)S(=O)(=O)C(C)CN6C)cc4n3)n2)CC(C)O1 (centres unmarked) [Compound 498]
5000	385	12.98					CS(=O)(=O)c1cc(F)cc(C(=O)NCc2cc3nc(-c4cncc(C5CC5)n4)ccc3cn2)c1 [Compound 295]
178	12.1	14.69					CN(C)c1cccc(-c2ccc3cnc(CNC(=O)c4cc(F)c5c(c4)S(=O)(=O)CCOC5)cc3n2)n1 [Compound 284]
733	64.7	11.32					Cc1ccc(C(=O)NCc2cc3nc(-c4cncc(C5CC5)n4)ccc3cn2)cc1S(C)(=O)=O [Compound 300]

IC50 (BRG-1; ADP-Glo ATPase assay) [nM]	IC50 (BRM; ADP-Glo ATPase assay) [nM]	Ratio* (BRG1 IC50 (μM) divided by BRM IC50 (μM)) (BRM)	Ratio* (BRM; ratio BRG1 IC50 / BRM IC50)	IC50 (BRG-1; [1]) [nM]	IC50 (BRM; [1]) [nM]	Ratio* (BRM; ratio of BRG1 IC50 to BRM IC50)	Structure (SMILES)
				828	56.8	14.57	O=C(NCc1cc2nc(-c3cccc4c3CC3COCCN43)ccc2cn1)c1ccc2c(c1)S(=O)(=O)CCOC2 (centres unmarked) [Compound 421]
				511	98.2	5.20	Cn1ncc2c1CCCN2c1ccc2cnc(CNC(=O)c3ccc4c(c3)S(=O)(=O)CCOC4)cc2n1 [Compound 380]
				164	10.3	15.88	CC(F)(F)c1ccc2c(c1)N(c1ccc3cnc(CNC(=O)c4ccc5c(c4)S(=O)(=O)CCOC5)cc3n1)CCO2 [Compound 682]
				59	7.2	8.17	COCc1cc2c(nc1Cl)N(c1ccc3cnc(CNC(=O)c4ccc5c(c4)S(=O)(=O)CCOC5)cc3n1)CCC2 [Compound 660]
				199	14.3	13.91	O=C(NCc1cc2nc(N3CCN(C4CC4)c4cccnc43)ccc2cn1)c1ccc2c(c1)S(=O)(=O)CCOC2 [Compound 686]
				461	20	23.08	COCc1nc2c(cc1C)CCCN2c1ccc2cnc(CNC(=O)c3ccc4c(c3)S(=O)(=O)CCOC4)cc2n1 [Compound 626]
517	54.2	9.53					COc1ccccc1-c1ccc2cnc(CNC(=O)c3ccc4c(c3)S(=O)(=O)CCOC4)cc2n1 [Compound 254]
1740	275	6.33					CN(C)[C@H]1CCN(c2cccc(-c3ccc4cnc(CNC(=O)c5ccc6c(c5)S(=O)(=O)CCOC6)cc4n3)n2)CC1(F)F [Compound 81]
				952	44.5	21.42	CO[C@H](C)c1cnc2c(c1)CCCN2c1ccc2cnc(CNC(=O)c3ccc4c(c3)S(=O)(=O)CCOC4)cc2n1 [Compound 608]
				242	22	10.98	O=C(NCc1cc2nc(N3CCCc4cc(F)cnc43)ccc2cn1)c1ccc2c(c1)S(=O)(=O)CCOC2 [Compound 591]
204	16.1	12.70					O=C(NCc1cc2cc(-c3cccc(N4CCC4)n3)ccc2cn1)c1ccc2c(c1)S(=O)(=O)CCOC2 [Compound 271]
				517	156	3.32	CN1CCCCc2ccc(-c3ccc4cnc(CNC(=O)c5ccc6c(c5)S(=O)(=O)CCOC6)cc4n3)nc21 [Compound 569]
2570	708		3.64				O=C(NCc1cc2nc(-c3ccc(OC4CC4)cn3)ccc2cn1)c1ccc2c(c1)S(=O)(=O)CCOC2 [Compound 851]
				329	21.1	15.59	CC1COCc2ccc(C(=O)NCc3cc4nc(-c5cccc(N6C[C@@H](C)O[C@@H](C)C6)n5)ccc4cn3)cc2S1(=O)=O (some centres unmarked) [Compound 319]
				142	13.9	10.20	COCCc1cnc2c(c1)CCCN2c1ccc2cnc(CNC(=O)c3ccc4c(c3)S(=O)(=O)CCOC4)cc2n1 [Compound 510]
2470	262	9.44					CO[C@@H](C)c1cccc(-c2ccc3cnc(CNC(=O)c4ccc5c(c4)S(=O)(=O)CCOC5)cc3n2)n1 [Compound 69]
				253	24.1	10.47	COCCN(c1cccc(-c2ccc3cnc(CNC(=O)c4ccc5c(c4)S(=O)(=O)CCOC5)cc3n2)n1)C1CC1 [Compound 349]
